This is an account of results in patent publication US11903387B2 (priority 2016, dated 2024).

Several values for one entry are separate records, joined by “and”; a condition that tells them apart may be missing. Equal entries are not always repeated. Where two headings read alike, the source gives them in different places.

The test system of test [1] is Phytophthora infestans. In words: whole plant or invertebrate. The format is in vivo. The conditions noted are these: for pest or weed control at 200 ppm: read-out: Test 1 Measured, component (b) alone 200 ppm; for Test 1 Measured / Test 1 Measured preventive value: component (b) alone; for pest or weed control at 20 ppm: read-out: Test 1 Measured, component (b) alone 20 ppm; for pest or weed control at 100 ppm: read-out: Test 1 Measured, component (b) alone 100 ppm; for pest or weed control at 500 ppm: read-out: Test 1 Measured, component (b) alone 500 ppm; for pest or weed control at 250 ppm: read-out: Test 1 preventive value, Measured, applied alone, 250 ppm.

Test [2] concerns Pseudoperonospora cubensis. The test is described as follows: Test 2: control effect against cucumber downy mildew. The format is in vivo. To be noted: for pest or weed control at 200 ppm: component (b) alone 200 ppm; for pest or weed control at 20 ppm: component (b) alone 20 ppm; for pest or weed control at 100 ppm: component (b) alone 100 ppm; for pest or weed control at 500 ppm: component (b) alone 500 ppm.

The mark [3] stands for this setting: Phytophthora infestans, in Solanum lycopersicum, read-out: Test 1 Measured preventive value, component (b) alone, 2 ppm.
[4] abbreviates: Phytophthora infestans, in Solanum lycopersicum, read-out: Test 1 Measured preventive value, component (b) alone, 10 ppm.
Where [5] appears, read: Phytophthora infestans, in Solanum lycopersicum, read-out: Test 1 Measured preventive value, component (b) alone, 50 ppm.
Setting [6] is: Phytophthora infestans, in Solanum lycopersicum.
The mark [7] stands for this setting: Pseudoperonospora cubensis, read-out: Test 2 Measured.
[8] abbreviates: Phytophthora infestans, in Solanum lycopersicum, read-out: Test 1 preventive value, Measured, applied alone, 50 ppm.
Setting [9] is: Pseudoperonospora cubensis, applied alone, 10 ppm, read-out: Test 2 preventive value, Measured.
[10] abbreviates: Pseudoperonospora cubensis, applied alone, 50 ppm, read-out: Test 2 preventive value, Measured.
Where [11] appears, read: Pseudoperonospora cubensis, applied alone, read-out: Test 2 preventive value, Measured.
The mark [12] stands for this setting: Phytophthora infestans, in Solanum lycopersicum, read-out: Test 1 preventive value, Measured, applied alone, 2 ppm.
Where [13] appears, read: Phytophthora infestans, in Solanum lycopersicum, read-out: Test 1 preventive value, Measured, applied alone, 10 ppm.
[14] abbreviates: Pseudoperonospora cubensis, applied alone, 2 ppm, read-out: Test 2 preventive value, Measured.
Setting [15] is: Phytophthora infestans, in Solanum lycopersicum, read-out: Test 1 Measured, component (b) alone, 2 ppm.
The mark [16] stands for this setting: Phytophthora infestans, in Solanum lycopersicum, read-out: Test 1 Measured, component (b) alone, 10 ppm.
The mark [17] stands for this setting: Pseudoperonospora cubensis, component (b) alone, 2 ppm, read-out: Test 2 Measured.
Setting [18] is: Pseudoperonospora cubensis, component (b) alone, 10 ppm, read-out: Test 2 Measured.

With `CCNC(=O)NC(=O)/C(C#N)=N/OC` [Cymoxanil], in test [1] (setting [3]), the pest or weed control at 2 ppm came out at 31.7%. Further, the pest or weed control at 10 ppm in test [1] (setting [4]) came to 78.3%. Also, the pest or weed control at 50 ppm in test [1] (setting [5]) was determined as 100%. For the same compound, the “Test 2 Measured preventive value” is recorded as 0 in test [2] (component (b) alone, 2 ppm); 0 in test [2] (component (b) alone, 10 ppm); 46.3 in test [2] (component (b) alone, 50 ppm).

With `CCCC1COC(Cn2cncn2)(c2ccc(Cl)cc2Cl)O1` (stereo not drawn) [Propiconazole], the pest or weed control at 8 ppm was found to be 0% in test [1] (Phytophthora infestans, in Solanum lycopersicum, read-out: Test 1 Measured, component (b) alone 8 ppm) and 0% in test [2] (Pseudoperonospora cubensis, component (b) alone 8 ppm, read-out: Test 2 Measured). Besides, the pest or weed control at 40 ppm in test [1] (Phytophthora infestans, in Solanum lycopersicum, read-out: Test 1 Measured, component (b) alone 40 ppm) worked out at 35%; in test [2] (Pseudoperonospora cubensis, component (b) alone 40 ppm, read-out: Test 2 Measured) it was 7.5%. Further, the pest or weed control at 200 ppm in test [1] (setting [6]) was 53.3%; in test [2] (setting [7]), 57.5%.

Turning to `CON=C(C(=O)OC)c1ccccc1CON=C(C)c1cccc(C(F)(F)F)c1` [Trifloxystrobin], the pest or weed control at 50 ppm in test [1] (setting [8]) was found to be 28.3%; in test [2] (setting [10]) it was 0%. Also, the pest or weed control at 10 ppm in test [2] (setting [9]) was 0%. In test [2] (setting [11]), the pest or weed control at 250 ppm was 0%.

With `CO/N=C(/C(=O)OC)c1ccccc1COc1ccccc1C` [Kresoxim-methyl], the pest or weed control at 2 ppm in test [1] (setting [12]) was 50%; in test [2] (setting [14]) it was 0%. In addition, the pest or weed control at 10 ppm in test [1] (setting [13]) came out at 90.7%; in test [2] (setting [9]) it was 7.5%. Further, the figures for the pest or weed control at 50 ppm in test [1] (setting [8]) and in test [2] (setting [10]) were 99.8% and 2.5%, respectively.

As for `CCC(C)(NC(=O)c1cc(Cl)c(C)c(Cl)c1)C(=O)CCl` (stereo not drawn) [Zoxamide], the pest or weed control at 2 ppm in test [1] (setting [3]) is 83.3%. Moreover, in test [1] (setting [4]), the pest or weed control at 10 ppm came to 95%. Besides, in test [1] (setting [5]), the pest or weed control at 50 ppm turned out to be 99%. Further, the “Test 2 Measured preventive value” in test [2] (component (b) alone, 2 ppm) is reported as 94; in test [2] (component (b) alone, 10 ppm), 97.3; in test [2] (component (b) alone, 50 ppm), 98.8.

Turning to `Cc1c(Br)c2ccc(F)cc2n1S(=O)(=O)c1ncn(S(=O)(=O)N(C)C)n1` [Amisulbrom], the “Test 1 Measured” value in test [1] (0.4 ppm) was 60; in test [1] (2 ppm), 80; in test [1] (10 ppm), 97. Besides, the “Test 2 Measured” value is 27.5 in test [2] (component (b) alone, 0.4 ppm); 98.8 in test [2] (component (b) alone, 2 ppm); 100 in test [2] (component (b) alone, 10 ppm).

With `CCCOC(=O)NCCCN(C)C` [Propamocarb], the results for the pest or weed control at 200 ppm in test [1] (setting [6]) and in test [2] (setting [7]) were 5% and 45%, respectively. The pest or weed control at 1000 ppm amounted to 21.7% in test [1] (Phytophthora infestans, in Solanum lycopersicum, read-out: Test 1 Measured, component (b) alone 1000 ppm) and 97.5% in test [2] (Pseudoperonospora cubensis, component (b) alone 1000 ppm, read-out: Test 2 Measured). Also, the pest or weed control at 5000 ppm turned out to be 48.3% in test [1] (Phytophthora infestans, in Solanum lycopersicum, read-out: Test 1 Measured, component (b) alone 5000 ppm) and 81.5% in test [2] (Pseudoperonospora cubensis, component (b) alone 5000 ppm, read-out: Test 2 Measured).

Turning to Mancozeb, the “Test 1 Measured” value in test [1] (2 ppm) turned out to be 21.8; in test [1] (10 ppm), 80.5; in test [1] (50 ppm) it was 100.0. For the same compound, the “Test 1 Measured preventive value” in test [1] (2 ppm) amounted to 11.7; in test [1] (10 ppm) it was 84.2; in test [1] (50 ppm) it was 100.0. Moreover, the “Test 2 Measured” value in test [2] (component (b) alone, 2 ppm) is on record as 33; in test [2] (component (b) alone, 10 ppm), 100; in test [2] (component (b) alone, 50 ppm), 100. Also, the “Test 2 Measured preventive value” turned out to be 99 in test [2] (component (b) alone, 10 ppm) and 100 in test [2] (component (b) alone, 50 ppm).

For the compound `CC(C)NC(=O)N1CC(=O)N(c2cc(Cl)cc(Cl)c2)C1=O` [Iprodione], in test [1] (setting [6]), the pest or weed control at 20 ppm was determined as 0%, the pest or weed control at 100 ppm came to 0% and the pest or weed control at 500 ppm is 5%. In addition, in test [2] (setting [7]), the pest or weed control at 20 ppm was 0%, the pest or weed control at 100 ppm was determined as 0% and the pest or weed control at 500 ppm worked out at 0%.

Consider `CSC1=N[C@@](C)(c2ccccc2)C(=O)N1Nc1ccccc1` [Fenamidone], for which the pest or weed control at 0.4 ppm in test [1] (Phytophthora infestans, in Solanum lycopersicum, read-out: Test 1 Measured, component (b) alone, 0.4 ppm) came out at 16.7%; in test [2] (Pseudoperonospora cubensis, component (b) alone, 0.4 ppm, read-out: Test 2 Measured), 0%. Further, the pest or weed control at 2 ppm in test [1] (setting [15]) was 94.2%; in test [2] (setting [17]), 0%. In addition, the pest or weed control at 10 ppm came to 98.5% in test [1] (setting [16]) and 0% in test [2] (setting [18]).

On to `N#Cc1c[nH]cc1-c1cccc2c1OC(F)(F)O2` [Fludioxonil], for which, in test [1] (setting [6]), the pest or weed control at 20 ppm is 0%, the pest or weed control at 100 ppm was found to be 6.7% and the pest or weed control at 500 ppm was found to be 18.3%. For the same compound, in test [2] (setting [7]), the pest or weed control at 20 ppm is 87.5%, the pest or weed control at 100 ppm stood at 97% and the pest or weed control at 500 ppm was 98.3%.

`CC(C)(C)C(O)(CCc1ccc(Cl)cc1)Cn1cncn1` (stereo not drawn) [Tebuconazole]: in test [1] (setting [6]), the pest or weed control at 20 ppm came to 0%, the pest or weed control at 100 ppm amounted to 0% and the pest or weed control at 500 ppm was found to be 16.7%. Moreover, in test [2] (setting [7]), the pest or weed control at 20 ppm came to 0%, the pest or weed control at 100 ppm is 10% and the pest or weed control at 500 ppm was 97%.

`O=C1C2CC=CCC2C(=O)N1SC(Cl)(Cl)Cl` (stereo not drawn) [Captan]: the pest or weed control at 2 ppm in test [1] (setting [3]) is 5%; in test [1] (setting [15]) it was 10%; in test [2] (setting [17]), 90.1%. For the same compound, the pest or weed control at 10 ppm was found to be 71.7% in test [1] (setting [4]), 64.5% in test [1] (setting [16]) and 99% in test [2] (setting [18]). For the same compound, the pest or weed control at 50 ppm is 93.8% in test [1] (setting [5]); 90% in test [1] (Phytophthora infestans, in Solanum lycopersicum, read-out: Test 1 Measured, component (b) alone, 50 ppm); 99% in test [2] (Pseudoperonospora cubensis, component (b) alone, 50 ppm, read-out: Test 2 Measured). In addition, the “Test 2 Measured preventive value” is 96 and 100 in test [2] (component (b) alone, 2 ppm); 99.3 in test [2] (component (b) alone, 10 ppm); 100 and 96 in test [2] (component (b) alone, 50 ppm).

In the case of `COC(=O)NCc1cc(/C(C)=N/OCc2cccc(C)n2)ccc1Cl` [Pyribencarb], the results for the pest or weed control at 10 ppm in test [1] (setting [13]) and in test [2] (setting [9]) were 8.3% and 0%, respectively. In addition, the pest or weed control at 50 ppm in test [1] (setting [8]) was 11.7%; in test [2] (setting [10]) it was 0%. Further, the pest or weed control at 250 ppm in test [1] (setting [6]) was 23.3%; in test [2] (setting [11]), 10%.

With Propineb, the entries for the “Test 1 Measured” value in test [1] (2 ppm), in test [1] (10 ppm) and in test [1] (50 ppm) were 0.0, 36.1 and 99.0, respectively. Besides, the “Test 1 Measured preventive value” in test [1] (2 ppm) worked out at 0.0; in test [1] (10 ppm), 48.3; in test [1] (50 ppm) it was 98.3. Further, the “Test 2 Measured” value is recorded as 17.5 in test [2] (component (b) alone, 2 ppm); 95 in test [2] (component (b) alone, 10 ppm); 100 in test [2] (component (b) alone, 50 ppm). Besides, the “Test 2 Measured preventive value” worked out at 7.5 in test [2] (component (b) alone, 2 ppm); 94.3 in test [2] (component (b) alone, 10 ppm); 100 in test [2] (component (b) alone, 50 ppm).

As to `O=[N+]([O-])c1cc(C(F)(F)F)c(Cl)c([N+](=O)[O-])c1Nc1ncc(C(F)(F)F)cc1Cl` [Fluazinam], the pest or weed control at 2 ppm was determined as 0% in test [1] (setting [12]) and 90.8% in test [2] (setting [14]). Further, the figures for the pest or weed control at 10 ppm in test [1] (setting [13]) and in test [2] (setting [9]) were 16.7% and 100%, respectively. For the same compound, in test [1] (setting [8]), the pest or weed control at 50 ppm amounted to 60.8%. Besides, the pest or weed control at 0.4 ppm in test [2] (Pseudoperonospora cubensis, applied alone, 0.4 ppm, read-out: Test 2 preventive value, Measured) is 0%.

Turning to `CC(C)CC(C)c1sccc1NC(=O)c1cn(C)nc1C(F)(F)F` (stereo not drawn) [Penthiopyrad], the pest or weed control at 10 ppm in test [1] (setting [13]) and in test [2] (setting [9]) was 0% each time. For the same compound, the pest or weed control at 50 ppm in test [1] (setting [8]) and in test [2] (setting [10]) was 0% in each case. For the same compound, the pest or weed control at 250 ppm in test [1] (setting [6]) stood at 0%; in test [2] (setting [11]), 27.5%.

As to `N=C(N)NCCCCCCCCNCCCCCCCCNC(=N)N` [Iminoctadine], the “Test 1 Measured” value in test [1] (20 ppm) was found to be 5; in test [1] (100 ppm), 92.5; in test [1] (500 ppm) it was 96.5. Further, the “Test 2 Measured” value is 79.5 in test [2] (component (b) alone, 20 ppm); 97 in test [2] (component (b) alone, 100 ppm); 99 in test [2] (component (b) alone, 500 ppm).
